Assay [1] relates to Mycosphaerella graminicola (Septoria tritici). Description: Mycosphaerella graminicola (Septoria tritici) / liquid culture (Septoria blotch). In kind it is cell-based. As to conditions: Zymoseptoria tritici, read-out: control of Mycosphaerella graminicola.
In a further assay the test system is Pyrenophora teres. As to the kind of experiment: Pyrenophora teres / barley / leaf disc preventative (net blotch). It counts as in vivo. As to conditions: 200 ppm, 5-7 days after application, vs untreated control. From the text:
Pyrenophora teres/Barley/Leaf Disc Preventative (Net Blotch) Barley leaf segments cv. […] The leaf segments are inoculated with a spore suspension of the fungus 2 days after application. […] P5.

Assay [2] relates to Phaeosphaeria nodorum (Septoria nodorum). Description: Phaeosphaeria nodorum (Septoria nodorum) / wheat / leaf disc preventative (glume blotch). Conditions: 200 ppm, 5-7 days after application, vs untreated control. In kind it is in vivo. The source says:
Phaeosphaeria Nodorum (Septoria nodorum)/Wheat/Leaf Disc Preventative (Glume Blotch) Wheat leaf segments cv. […] The leaf disks are inoculated with a spore suspension of the fungus 2 days after application. […] P3.

Where [3] appears, read: 20 ppm, liquid culture, growth inhibition photometrically 4-5 days after application, vs untreated control.

Read-outs that look alike come from different tables or passages of the source.

Here are results for eight compounds from patent publication US20260240158A1, “MICROBIOCIDAL THIAZOLE DERIVATIVES” (SYNGENTA CROP PROTECTION AG, priority 2019, published 2026).

`Cc1sc(Nc2cnsc2)nc1C(=O)NCC(C)(C)C` [Compound P2, N-(2,2-dimethylpropyl)-2-(isothiazol-4-ylamino)-5-methyl-thiazole-4-carboxamide]: in assay [1] (setting [3]), the inhibition of growth at 20 ppm is at least 80%.

Turning to `Cc1sc(N(C#N)c2cnsc2)nc1C(=O)NC1CCC12CCCC2` (stereo not shown) [Compound P9, 2-cyano(isothiazol-4-yl)amino-5-methyl-N-spiro 3.4 octan-3-yl-thiazole-4-carboxamide], in assay [1] (setting [3]), the inhibition of growth at 20 ppm is at least 80%.

For the compound `Cc1sc(Nc2cnsc2)nc1C(=O)NC1CCC12CCCC2` (stereo not shown) [Compound P5, 2-(isothiazol-4-ylamino)-5-methyl-N-spiro 3.4 octan-3-yl-thiazole-4-carboxamide], in the assay on Pyrenophora teres, the “control of Pyrenophora teres” value is on record as “at least 80%”. Moreover, in assay [1] (setting [3]), the inhibition of growth at 20 ppm was at least 80%.

In the case of `Cc1sc(Nc2cnsc2)nc1C(=O)NC1CCC1(C)C` (stereo not shown) [Compound P6, N-(2,2-dimethylcyclobutyl)-2-(isothiazol-4-ylamino)-5-methyl-thiazole-4-carboxamide], the inhibition of growth at 20 ppm in assay [1] is at least 80%.

`COCC(=O)N(c1cnsc1)c1nc(C(=O)NC2CCC23CCCC3)c(C)s1` (stereo not shown) [Compound P8, 2-isothiazol-4-yl-(2-methoxyacetyl) amino-5-methyl-N-spiro 3.4 octan-3-yl-thiazole-4-carboxamide]: the inhibition of growth at 20 ppm in assay [1] (setting [3]) is at least 80%.

On to `Cc1sc(Nc2cnsc2)nc1C(=O)NCCC(C)C` [Compound P3, N-isopentyl-2-(isothiazol-4-ylamino)-5-methyl-thiazole-4-carboxamide], for which the “control of Phaeosphaeria nodorum” value in assay [2] is listed as “at least 80%”. In assay [1] (setting [3]), the inhibition of growth at 20 ppm is at least 80%.

Consider `Cc1sc(Nc2cnsc2)nc1C(=O)NC(C)c1ccccc1` (stereo not shown) [Compound P4, 2-(isothiazol-4-ylamino)-5-methyl-N-(1-phenylethyl) thiazole-4-carboxamide], for which the inhibition of growth at 20 ppm in assay [1] (setting [3]) is at least 80%.

Take `CCCCNC(=O)c1nc(Nc2cnsc2)sc1C` [Compound P1, N-butyl-2-(isothiazol-4-ylamino)-5-methyl-thiazole-4-carboxamide]: the inhibition of growth at 20 ppm in assay [1] (setting [3]) is at least 80%.
